Results published in US6693112B2, “Compounds for enhancing chemotherapy” (The Pennsylvania State University, priority 2000, dated 2004).
Where two headings read alike, the source gives them in different places.

Key:
[1] = test system: A498 cells; experiment: Drug cytotoxicity with or without 10 μM modulator, A498 cells (Table V)
[2] = test system: MCF7/VP cells; experiment: Drug cytotoxicity with or without 10 μM modulator, MCF7/VP (MRP1) cells (Table V); conditions: for IC50: read-out: IC50 (EtOH)
[3] = test system: MCF-7 cells; experiment: Drug cytotoxicity with or without 10 μM modulator, MCF-7 cells (Table V)
[4] = test system: P388/ADR cells; experiment: Drug cytotoxicity with or without 10 μM modulator, P388/ADR cells (Table V); conditions: for IC50: read-out: IC50 (EtOH)
[5] = test system: T24 cells; experiment: Drug cytotoxicity with or without 10 μM modulator, T24 cells (Table V)
[6] = test system: NCI/ADR cells; experiment: Drug cytotoxicity with or without 10 μM modulator, NCI/ADR cells (Table V); conditions: for IC50: read-out: IC50 (EtOH)
[7] = test system: MCF-7 cells; experiment: Accumulation of [3H]Taxol and [3H]vinblastine by MCF-7 cells; assay type: cell-based, human
[8] = test system: MCF-7 cells; experiment: Cytotoxicity toward drug-sensitive MCF-7 cells (sulforhodamine B binding assay); assay type: cell-based, human; conditions: MCF-7 cells; concentration required to kill 50% of the cells
[9] = test system: NCI/ADR cells; experiment: Accumulation of [3H]Taxol and [3H]vinblastine by NCI/ADR cells; assay type: cell-based
[10] = test system: MCF-7/VP cells; experiment: Accumulation of [3H]Taxol and [3H]vinblastine by MCF-7/VP cells; assay type: cell-based
[11] = molecular target: P-gp (Homo sapiens, UniProt P08183)
Method: The percentage of cells that died following treatment was calculated as a percent decrease in sulforhodamine B binding as compared with control cultures. […] Inhibition of P-gp was manifested as the ability of the compound to enhance the cytotoxicity of vinblastine toward NCI/ADR cells. To assess the toxicity of the compounds toward drug-sensitive cells, the effects of the compounds on the growth of drug-sensitive MCF-7 cells were determined using the same methods.
The P-gp antagonism score was calculated by dividing the percent survival of NCI/ADR cells treated with the compound alone by the percent survival of NCI/ADR cells treated with the compound in the presence of 50 nM vinblastine. Chemosensitization is indicated by a score of more than 1.0.
The P-gp antagonism score was calculated by dividing the percent survival of NCI/ADR cells treated with […] by the percent survival of NCI/ADR cells treated with the compound in the presence of 50 nM vinblastine.

[12] = Homo sapiens, A498, read-out: IC50 (EtOH)
[13] = Homo sapiens, MCF7, read-out: IC50 (EtOH)
[14] = Homo sapiens, T-24, read-out: IC50 (EtOH)
[15] = A498 cells, IC50 in the absence / in the presence of 10 μM of verapamil or Compound 4008
[16] = MCF7/VP (MRP1) cells, IC50 in the absence / in the presence of 10 μM of verapamil or Compound 4008
[17] = MCF-7 cells, IC50 in the absence / in the presence of 10 μM of verapamil or Compound 4008
[18] = P388/ADR cells, IC50 in the absence / in the presence of 10 μM of verapamil or Compound 4008
[19] = T24 cells, IC50 in the absence / in the presence of 10 μM of verapamil or Compound 4008
[20] = NCI/ADR cells, IC50 in the absence / in the presence of 10 μM of verapamil or Compound 4008

Sequence of P-gp (P08183 whole entry): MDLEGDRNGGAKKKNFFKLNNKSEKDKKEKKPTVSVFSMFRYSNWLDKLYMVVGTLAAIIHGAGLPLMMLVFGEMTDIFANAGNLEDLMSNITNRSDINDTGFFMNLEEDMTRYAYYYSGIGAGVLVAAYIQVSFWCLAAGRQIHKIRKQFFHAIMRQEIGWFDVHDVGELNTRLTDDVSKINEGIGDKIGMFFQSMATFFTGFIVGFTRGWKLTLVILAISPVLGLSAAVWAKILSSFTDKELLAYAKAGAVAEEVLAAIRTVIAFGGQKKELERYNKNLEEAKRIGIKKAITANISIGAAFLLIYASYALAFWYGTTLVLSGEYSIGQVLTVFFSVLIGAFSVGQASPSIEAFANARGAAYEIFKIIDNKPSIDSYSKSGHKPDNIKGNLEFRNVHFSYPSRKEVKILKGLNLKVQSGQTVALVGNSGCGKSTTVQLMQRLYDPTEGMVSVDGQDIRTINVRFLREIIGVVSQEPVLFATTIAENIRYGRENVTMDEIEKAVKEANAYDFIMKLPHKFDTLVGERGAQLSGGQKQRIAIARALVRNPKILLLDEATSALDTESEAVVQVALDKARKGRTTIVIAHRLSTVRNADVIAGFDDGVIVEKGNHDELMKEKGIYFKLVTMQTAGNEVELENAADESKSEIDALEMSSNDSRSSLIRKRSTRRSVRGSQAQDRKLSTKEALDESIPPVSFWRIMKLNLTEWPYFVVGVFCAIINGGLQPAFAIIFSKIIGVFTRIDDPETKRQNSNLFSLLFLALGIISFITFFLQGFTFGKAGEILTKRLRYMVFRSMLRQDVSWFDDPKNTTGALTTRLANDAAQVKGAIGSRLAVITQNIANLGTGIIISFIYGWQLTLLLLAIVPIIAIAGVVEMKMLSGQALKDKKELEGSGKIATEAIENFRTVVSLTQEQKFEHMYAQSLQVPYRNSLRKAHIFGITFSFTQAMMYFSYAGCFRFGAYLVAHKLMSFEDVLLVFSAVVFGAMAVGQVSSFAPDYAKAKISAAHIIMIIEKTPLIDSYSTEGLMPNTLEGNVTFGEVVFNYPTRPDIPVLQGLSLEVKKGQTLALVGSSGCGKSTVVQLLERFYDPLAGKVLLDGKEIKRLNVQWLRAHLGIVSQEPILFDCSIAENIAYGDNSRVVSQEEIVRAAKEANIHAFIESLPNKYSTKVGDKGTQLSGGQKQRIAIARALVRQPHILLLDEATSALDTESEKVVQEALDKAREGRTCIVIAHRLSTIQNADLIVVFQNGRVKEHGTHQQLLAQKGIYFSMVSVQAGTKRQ

## O=c1[nH]cc(F)c(=O)[nH]1 [5-Fluorouracil, 5-fluorouracil, reference compound]
[1]; [12]
  IC50: 9000 ± 2100 nM
[2]; Homo sapiens, MCF7-VP
  IC50: 11000 ± 1000 nM
[3]; [13]
  IC50: 49000 ± 31000 nM
[4]; Mus musculus, P388/ADR
  IC50: 220 ± 40 nM
[5]; [14]
  IC50: 77000 ± 20000 nM
[6]; Homo sapiens, NCI/ADR-RES
  IC50: 181000 ± 84000 nM

## N.N.[Cl][Pt][Cl] [Cisplatin, cisplatin, reference compound]
[1]; read-out: IC50 (EtOH), A498 cells, drug alone, EtOH solvent control, no modulator
  IC50: 4600 ± 1000 nM
[2]; MCF7/VP (MRP1) cells, drug alone, EtOH solvent control, no modulator
  IC50: 8500 ± 2100 nM
[3]; read-out: IC50 (EtOH), MCF-7 cells, drug alone, EtOH solvent control, no modulator
  IC50: 16000 ± 5000 nM
[4]; P388/ADR cells, drug alone, EtOH solvent control, no modulator
  IC50: 2100 ± 800 nM
[5]; read-out: IC50 (EtOH), T24 cells, drug alone, EtOH solvent control, no modulator
  IC50: 6700 ± 1100 nM
[6]; NCI/ADR cells, drug alone, EtOH solvent control, no modulator
  IC50: 7000 ± 900 nM

## O=C(Cc1ccccc1)Nc1c2c(nc3ccccc13)N(Cc1ccccc1)CC2 [Compound 4008]
[7]
  accumulation of [3H]Taxol and [3H]vinblastine: without affecting the accumulation
[1]; [15]
  RI, 5-Fluorouracil: 0.7
  RI, Cisplatin: 0.8
  RI, Taxol: 6.8
  RI, Vinblastine: 18
  RI, Vincristine: 18
[8]
  Toxicity IC50: 5 µg/mL
[9]
  accumulation of [3H]Taxol and [3H]vinblastine: increases the accumulation
[10]
  accumulation of [3H]Taxol and [3H]vinblastine: without affecting the accumulation
[2]; [16]
  RI, 5-Fluorouracil: 0.7
  RI, Cisplatin: 0.8
  RI, Taxol: 0.8
  RI, Vinblastine: 1.3
  RI, Vincristine: 1.0
[2]; MRP1-overexpressing MCF7/VP cells
  enhancement of the toxicity of vincristine toward MCF7/VP cells: no effect
[3]; [17]
  RI, 5-Fluorouracil: 1.6
  RI, Cisplatin: 0.8
  RI, Taxol: 0.9
  RI, Vinblastine: 1.8
  RI, Vincristine: 0.9
[4]; [18]
  RI, 5-Fluorouracil: 0.7
  RI, Cisplatin: 1.9
  RI, Doxorubicin: 200
  RI, Taxol: 202
  RI, Vinblastine: 63
  RI, Vincristine: 30
[5]; [19]
  RI, 5-Fluorouracil: 2.6
  RI, Cisplatin: 1.1
  RI, Taxol: 1.2
  RI, Vinblastine: 3.8
  RI, Vincristine: 1.5
[11]
  Maximum Antagonism: 17.1 (3.1)
  Maximum Antagonism (conc. μg/ml): 17.1 (3.1) μg/ml
  therapeutic index: at least 10 fold
[6]; [20]
  RI, 5-Fluorouracil: 1.0
  RI, Cisplatin: 1.2
  RI, Taxol: 70
  RI, Vinblastine: 35
  RI, Vincristine: 18

## COc1cccc2c1C(=O)c1c(O)c3c(c(O)c1C2=O)C[C@@](O)(C(=O)CO)C[C@@H]3O[C@H]1C[C@H](N)[C@H](O)[C@H](C)O1 [Doxorubicin, reference compound]
[4]; Mus musculus, P388/ADR
  IC50: 26700 ± 10600 nM

## CC(=O)O[C@H]1C(=O)[C@@]2(C)[C@H]([C@H](OC(=O)c3ccccc3)[C@]3(O)C[C@H](OC(=O)[C@H](O)[C@@H](NC(=O)c4ccccc4)c4ccccc4)C(C)=C1C3(C)C)[C@]1(OC(C)=O)CO[C@@H]1C[C@@H]2O [Taxol, reference compound]
[1]; [12]
  IC50: 49 ± 21 nM
[2]; Homo sapiens, MCF7-VP
  IC50: 1.8 ± 0.4 nM
[3]; [13]
  IC50: 1.6 ± 0.3 nM
[4]; Mus musculus, P388/ADR
  IC50: 1650 ± 470 nM
[5]; [14]
  IC50: 4.7 ± 0.5 nM
[6]; Homo sapiens, NCI/ADR-RES
  IC50: 2020 ± 810 nM

## CC[C@]1(O)C[C@@H]2CN(CCc3c([nH]c4ccccc34)[C@@](C(=O)OC)(c3cc4c(cc3OC)N(C)[C@H]3[C@@](O)(C(=O)OC)[C@H](OC(C)=O)[C@]5(CC)C=CCN6CC[C@]43[C@@H]65)C2)C1 [Vinblastine, vinblastine, reference compound]
[1]; [12]
  IC50: 7.6 ± 2.6 nM
[2]; Homo sapiens, MCF7-VP
  IC50: 0.6 ± 0.1 nM
[3]; [13]
  IC50: 0.4 ± 0.1 nM
[4]; Mus musculus, P388/ADR
  IC50: 28 ± 5 nM
[5]; [14]
  IC50: 1.3 ± 0.3 nM
[6]; Homo sapiens, NCI/ADR-RES
  IC50: 110 ± 17 nM

## CC[C@]1(O)C[C@H]2CN(CCc3c([nH]c4ccccc34)[C@@](C(=O)OC)(c3cc4c(cc3OC)N(C=O)[C@H]3[C@@](O)(C(=O)OC)[C@H](OC(C)=O)[C@]5(CC)C=CCN6CC[C@]43[C@@H]65)C2)C1 [Vincristine, vincristine, reference compound]
[1]; [12]
  IC50: 62 ± 11 nM
[2]; Homo sapiens, MCF7-VP
  IC50: 7.5 ± 1.1 nM
[3]; [13]
  IC50: 0.6 ± 0.1 nM
[4]; Mus musculus, P388/ADR
  IC50: 150 ± 24 nM
[5]; [14]
  IC50: 4.8 ± 0.2 nM
[6]; Homo sapiens, NCI/ADR-RES
  IC50: 183 ± 14 nM
